Legend:
Conditions in all cases: 72 h
KCL-22 [1] = test system: KCL-22
In short: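 For the IC50, dose–response curves were fitted with a log-logistic model. The data came from fifteen myeloid leukaemia cell lines grown in RPMI 1640 at densities in the linear growth range and incubated in 384-well plates for 72 h at 37 °C under 5% CO2. Doses were five tenfold steps from 1 to 10,000 nM in duplicate, and luminescent ATP viability was normalised to vehicle and to a positive control at 10 µM before four-parameter fitting.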

HL-60 [2] = assay: cell viability (% survival relative to DMSO control); higher = less cytotoxic
In short: (§1)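 A rescreen of the full library used HL-60 cells in RPMI 1640 with 10% FBS on 384-well plates, run in duplicate at five tenfold concentrations (1–10,000 nM). Each screen included DMSO or 100 nM of one of three metabolic inhibitors and ran 72 h at 37 °C, 5% CO2. CellTiter-Glo viability was scaled between DMSO and 10 μM proteasome-inhibitor wells. Any area under the curve comes from four-parameter log-logistic fits with drc and PharmacoGx.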

BV-173 = assay: cell viability (% survival relative to DMSO control, bortezomib = 0%); higher = less cytotoxic
In short: (§2)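 In 384-well plates pre-printed with compounds at 1, 10, 100, 1000 or 10000 nM, duplicate wells received cells from 10 AML and 5 CML lines at densities within the linear growth range. The plates stayed at 37 °C with 5% CO2 for 72 h before CellTiter-Glo luminescence was recorded. Each entry is averaged percent survival. Scaling placed vehicle at 100% and a 10 µM positive control at 0%.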

HEL = assay: as above
In short: as §2

HL-60 [3] = assay: as above
In short: as §2

K-562 = assay: as above
In short: as §2

KCL-22 [4] = assay: as above
In short: as §2

KG-1 = assay: as above
In short: as §2

KU-812 = assay: as above
In short: as §2

LAMA-84 = assay: as above
In short: as §2

ML-2 = assay: as above
In short: as §2

MOLM-13 = assay: as above
In short: as §2

MV4-11 = assay: as above
In short: as §2

Mono-Mac-6 = assay: as above
In short: as §2

NOMO-1 = assay: as above
In short: as §2

SHI-1 = assay: as above
In short: as §2

THP-1 = assay: as above
In short: as §2

HL-60 [5] = assay: area under dose-response curve (viability, 1 nM-10 uM) (fraction (0-1)); higher = more sensitive
In short: as §1

O=C(O)Cn1nnc(-c2cc(N3CCC(Oc4cc(F)ccc4Br)CC3)no2)n1 [MK-8245]
Conditions	IC50 (cell viability) [nM]
KCL-22 [1]	> 10000

cell viability [%], HL-60 [2]
Conditions	0.001 µM	0.01 µM	0.1 µM	1 µM	10 µM
co-treatment: AZD3965 100 nM	94.6	102	96.7	94.6	108
co-treatment: DMSO vehicle	99.9	99.3	97.87	94.57	100
co-treatment: GSK2194069 100 nM	96.6	100	101	90.2	97.4
co-treatment: pictilisib 100 nM	95.7	96.7	104	90.7	103

Conditions	area under dose-response curve, co-treatment: AZD3965 100 nM	area under dose-response curve, co-treatment: DMSO vehicle	area under dose-response curve, co-treatment: GSK2194069 100 nM	area under dose-response curve, co-treatment: pictilisib 100 nM	cell viability, 1 nM [%]	cell viability, 10 nM [%]	cell viability, 100 nM [%]	cell viability, 1000 nM [%]	cell viability, 10000 nM [%]
BV-173	–	–	–	–	88.1	105	91.2	88.6	87.3
HEL	–	–	–	–	108	115	75.6	92.7	91.2
HL-60 [3]	–	–	–	–	105	93.2	108	50.7	94.3
HL-60 [5]	< 0.0301	< 0.0301	< 0.0301	< 0.0301	–	–	–	–	–
K-562	–	–	–	–	97.7	122	90.5	88.2	41.2
KCL-22 [4]	–	–	–	–	105	118	95.5	97.7	60.1
KG-1	–	–	–	–	105	117	108	102	112
KU-812	–	–	–	–	99	107	93.4	88.2	94.7
LAMA-84	–	–	–	–	99.6	109	95.1	95.5	91.6
ML-2	–	–	–	–	109	111	102	105	96.7
MOLM-13	–	–	–	–	104	131	86.1	48.2	35.8
MV4-11	–	–	–	–	96.8	91.6	92.4	116	94.2
Mono-Mac-6	–	–	–	–	91.1	90.8	94.2	94.6	88
NOMO-1	–	–	–	–	95.8	103	96.9	96.9	90
SHI-1	–	–	–	–	99	119	103	97.8	90.8
THP-1	–	–	–	–	95.3	96.1	102	99	89.2

CC[C@@]1(O)C(=O)OCc2c1cc1n(c2=O)Cc2cc3c(CN(C)C)c(O)ccc3nc2-1 [Topotecan]
Conditions	IC50 (cell viability) [nM]
KCL-22 [1]	59.4

cell viability [%], HL-60 [2]
Conditions	0.001 µM	0.01 µM	0.1 µM	1 µM	10 µM
co-treatment: AZD3965 100 nM	99.6	98.4	7.08	3.55	2.51
co-treatment: DMSO vehicle	101	103	11.5	5.98	2.79
co-treatment: GSK2194069 100 nM	91.07	111	10.4	6.25	3.68
co-treatment: pictilisib 100 nM	102	98	9.22	5.76	3.31

Conditions	area under dose-response curve, co-treatment: AZD3965 100 nM	area under dose-response curve, co-treatment: DMSO vehicle	area under dose-response curve, co-treatment: GSK2194069 100 nM	area under dose-response curve, co-treatment: pictilisib 100 nM	cell viability, 1 nM [%]	cell viability, 10 nM [%]	cell viability, 100 nM [%]	cell viability, 1000 nM [%]	cell viability, 10000 nM [%]
BV-173	–	–	–	–	100	56.7	-0.0236	0.0225	0.196
HEL	–	–	–	–	94.8	103	0.201	0.373	0.268
HL-60 [3]	–	–	–	–	94.9	81.7	0.181	0.081	1.02
HL-60 [5]	0.608	0.585	0.58	0.597	–	–	–	–	–
K-562	–	–	–	–	90.8	92.7	48.3	13.2	4.27
KCL-22 [4]	–	–	–	–	97.2	97.8	27.9	5.33	1.56
KG-1	–	–	–	–	95.6	91.2	21.3	8.99	6.8
KU-812	–	–	–	–	95.5	99.6	13.1	3.16	1.45
LAMA-84	–	–	–	–	93.6	97.4	29.2	1.78	0.506
ML-2	–	–	–	–	94.6	84.8	0.565	0.238	3.1
MOLM-13	–	–	–	–	91.4	70.9	0.317	2.79	0.537
MV4-11	–	–	–	–	91.1	54.2	2	2.09	-0.156
Mono-Mac-6	–	–	–	–	87.3	98	2.7	0.495	0.236
NOMO-1	–	–	–	–	98.7	98.9	12.6	2.17	0.853
SHI-1	–	–	–	–	97.1	85.8	0.99	-0.151	0.783
THP-1	–	–	–	–	98.8	102	78.5	30.4	13.6
